What is called EC50 is the concentration that produces a half-maximal response. One may read the ΔTm as the change in melting temperature against a reference sample.

This note sets out measurements from US11766447B2, “3′3′-cyclic dinucleotide analogue comprising a cyclopentanyl modified nucleotide as sting modulator” (INSTITUTE OF ORGANIC CHEMISTRY AND BIOCHEMISTRY ASCR, V.V.I., priority 2019, dated 2023).

SMILES strings stand for the structures. Where two headings read alike, the source gives them in different places.

In assay [1] the target is T1, AQ STING (G230A-R293Q) (Homo sapiens, UniProt Q86WV6, G230A/H232R/R293Q).
T1 construct: 8xHis (N, cleaved yes); SUMO (N, cleaved yes); made in house; host or cells: E. coli Rosetta-gami B (DE3)
T1 sequence (Q86WV6 140-343 G230A/H232R/R293Q): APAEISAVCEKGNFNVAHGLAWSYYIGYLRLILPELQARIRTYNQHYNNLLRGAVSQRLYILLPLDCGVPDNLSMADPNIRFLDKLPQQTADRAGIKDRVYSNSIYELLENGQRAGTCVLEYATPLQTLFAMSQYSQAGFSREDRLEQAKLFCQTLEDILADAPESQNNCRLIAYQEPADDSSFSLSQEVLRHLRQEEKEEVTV
As to the kind of experiment: Differential scanning fluorimetry (DSF) with AQ STING. The assay is classed as binding. As to conditions: thermal shift vs apoprotein; 150 μM CDN; truncated human AQ STING 0.1 mg/ml. In short, it runs like this:
(§1)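 […] STING proteins, alone or with CDNs, in triplicate, thermally denatured on a real-time PCR cycler. Denaturing temperatures taken from first-derivative curves; shift = mean Tm of STING–CDN complex minus mean Tm of apoprotein.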
A general note: Differential scanning fluorimetry follows unfolding on heating by fluorescence.

The target of assay [2] is T2, WT STING (Homo sapiens, UniProt Q86WV6, H232R). As to the kind of experiment: Differential scanning fluorimetry (DSF) with WT STING. The assay is classed as binding. On the set-up: 8xHis (N, cleaved yes); SUMO (N, cleaved yes); made in house; host or cells: E. coli Rosetta-gami B (DE3). The following applies: thermal shift vs apoprotein; 150 μM CDN; truncated human WT STING 0.1 mg/ml. In short, it runs like this:
as §1
Target sequence in this assay (Q86WV6 140-343 H232R): as the sequence (Q86WV6 140-343 G230A/H232R/R293Q) above, with A91G, Q154R counted along it

For assay [3], the target named is T2, WT STING. As to the kind of experiment: 293T WT STING standard reporter assay. The format is cell-based. On the set-up: host or cells: 293T (ATCC CRL-3216), stably transfected, with 4xISRE firefly luciferase reporter. The following applies: 293T wtSTING-FL cells, ISRE firefly luciferase; no digitonin; 7 hours with compounds; 8-point curve. From the text: Two complementary oligonucleotides of the sequence […] […] […] […] […] The oligonucleotides were mixed in equal molar amounts, hybridized, and cleaved by restriction endonucleases HindIII (cat. #. R0104S, NEB, Ipswich, USA) and BglII (cat. #R0144S, NEB, Ipswich, USA). Ultimately, they were ligated into plasmid pGL4.27 (cat. #E6651, Promega, Madison, USA) linearized with the same enzymes. As result the sequence with four ISRE sites was placed upstream of the minimum promoter of firefly luciferase reporter gene.
After 5 minutes incubation at room temperature (RT), 250 μL of the mixture was added dropwise to the cells in one well. Cells were incubated 36 hours at 37° C. with 5% CO2, and then detached with 0.05% Trypsin and 0.22 g/L EDTA (both cat. #L0941, Biowest, Riverside, USA).
Transfected cells were seeded onto poly-D-lysine coated six well plates at density 50,000 cells per 1 cm^2 in DMEM medium with high glucose containing 10% heat inactivated FBS, 30 μg/mL blasticidin (cat. #ant-b1-05, InvivoGen, San Diego, USA), 0.06 mg/ml Penicillin G and 0.1 mg/ml Streptomycin Sulfate (both cat. #. L0018, Biowest, Riverside, USA). The medium was replenished every 3-4 days until visible colonies of cells resistant to blasticidin were formed.
Blasticidin resistant cells stably expressing WT STING were further transfected with […] plasmid following the same procedure as described above. […] Homogeneous culture of stably double transfected cells was prepared by limiting dilution of cells in 96 well plates and wells with cells were selected that originated from a single cell.
The medium was removed next day and three-fold serial dilutions of compounds in 100 μl medium were added to the cells. The plates with cells were incubated for 7 hours at 37° C. with 5% CO2. After 50 μl of the medium was removed, 30 μl of ONE-Glo™ Luciferase Assay System reagent (cat. #E6120, Promega, Madison, USA) was added to each well and luminescence was read on Synergy H1 (Biotek, Winooski, USA).
Target sequence in this assay (Q86WV6 whole entry H232R, the tested form may be a part): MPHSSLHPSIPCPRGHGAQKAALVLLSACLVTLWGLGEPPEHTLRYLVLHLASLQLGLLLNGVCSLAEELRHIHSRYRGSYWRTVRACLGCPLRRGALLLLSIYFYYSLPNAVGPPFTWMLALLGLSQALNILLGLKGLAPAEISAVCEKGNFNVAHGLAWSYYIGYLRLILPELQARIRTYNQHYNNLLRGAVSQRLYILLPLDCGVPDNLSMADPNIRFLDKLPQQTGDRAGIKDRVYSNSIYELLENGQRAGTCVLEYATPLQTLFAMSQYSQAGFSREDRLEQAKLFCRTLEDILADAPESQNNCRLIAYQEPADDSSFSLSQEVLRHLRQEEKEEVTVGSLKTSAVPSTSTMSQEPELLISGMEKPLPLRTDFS

For assay [4], the target named is T2, WT STING. As to the kind of experiment: Digitonin assay using 293T wtSTING-FL reporter cells. As to conditions: 293T wtSTING-FL cells, ISRE firefly luciferase; compounds in Digitonin buffer 30 minutes, then 5 hours; 8-point curve. On the set-up: host or cells: 293T (ATCC CRL-3216), stably transfected, with 4xISRE firefly luciferase reporter. The assay is classed as cell-based.
Target sequence in this assay (Q86WV6 whole entry H232R, the tested form may be a part): as above

The test system of assay [5] is peripheral blood mononuclear cells (PBMC). As to the kind of experiment: Peripheral blood mononuclear cell (PBMC) assay. The assay is classed as cell-based. As to conditions: PBMC, 1 h with compounds, washed, 15 hour incubation, average of one to four donors. Summed up:
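PBMCs exposed to serially diluted compound for 1 h at 37° C, 5% CO2, then washed twice and cultured 15 h in compound-free medium. IFN-α, IFN-γ and TNF-α measured in collected medium by multiplex bead immunoassay. Values averaged over runs from one to four donors.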

Where [6] appears, read: interferon-alpha level, read-out: PBMC EC50 (μM) IFN-α.
The mark [7] stands for this setting: interferon-gamma level, read-out: PBMC EC50 (μM) IFN-γ.
[8] abbreviates: tumor necrosis factor-alpha level, read-out: PBMC EC50 (μM) TNF-α.

Consider `Nc1ncnc2c1ncn2[C@@H]1C[C@@H]2COP(=O)(S)OC3C(F)[C@H](n4cnc5c(N)ncnc54)O[C@@H]3COP(=O)(S)OC2C1F` (single isomer, unassigned) [Compound 102b], for which, in assay [1], the “DSF ΔTm (° C.) AQ STING” value turned out to be 16.9 °C. Also, the “DSF ΔTm (° C.) WT STING” value in assay [2] turned out to be 11.9 °C. Moreover, the figures for the EC50 in assay [3] and in assay [4] were 0.7 µM and 0.005 µM, respectively.
On the same counts, the results for `Nc1ncnc2c1ncn2[C@@H]1C[C@@H]2COP(=O)(O)O[C@H]3[C@@H](F)[C@H](n4cnc5c(N)ncnc54)O[C@@H]3COP(=O)(S)O[C@H]2[C@H]1F` (single isomer, unassigned) [Compound 130b] are 20.3 °C, 13.6 °C, 1.2 µM and 0.01 µM.
As to `Nc1ncnc2c1ncn2[C@@H]1C[C@@H]2COP(=O)(O)OC3C(F)[C@H](n4cnc5c(N)ncnc54)O[C@@H]3COP(=O)(O)OC2C1F` (stereo partly drawn) [Compound 120, (2R,3R,3aR,7aR,9R,10S,10aR,14aR)-2,9-bis(6-amino-9H-purin-9-yl)-3,10-difluoro-5,12-dihydroxydecahydro-2H-cyclopenta[d]furo[3,2-j][1,3,7,9]tetraoxa[2,8]diphosphacyclododecine 5,12-dioxide], the ΔTm at 150 µM was found to be 17 °C in assay [1] and 10.3 °C in assay [2]. Besides, the EC50 in assay [3] came out at 1.9 µM; in assay [5] (setting [6]), 64 µM; in assay [5] (setting [7]), 36.6 µM; in assay [5] (setting [8]) it was 72.6 µM; in assay [4], 0.01 µM.
For the molecule `Nc1ncnc2c1ncn2[C@@H]1C[C@@H]2COP(=O)(O)OC3C(F)[C@H](n4cnc5c(N)ncnc54)C[C@@H]3COP(=O)(O)OC2C1F` (stereo partly drawn) [Compound 121, (2R,3S,3aR,7aR,9R,10S,10aR,14aR)-2,9-bis(6-amino-9H-purin-9-yl)-3,10-difluoro-5,12-dihydroxydodecahydrodicyclopenta[d,j][1,3,7,9]tetraoxa[2,8]-diphosphacyclododecine 5,12-dioxide], the ΔTm at 150 µM in assay [1] was 13.9 °C; in assay [2], 7.6 °C. Besides, the EC50 came out at 2.6 µM in assay [3]; 254 µM in assay [5] (setting [6]); 200 µM in assay [5] (setting [7]); 254 µM in assay [5] (setting [8]); 0.05 µM in assay [4].
As for `Nc1nc2c(ncn2[C@@H]2C[C@@H]3COP(=O)(S)O[C@H]4[C@@H](F)[C@H](n5cnc6c(N)ncnc65)O[C@@H]4COP(=O)(S)O[C@H]3C2)c(=O)[nH]1` (single isomer, unassigned) [Compound 129d], the “DSF ΔTm (° C.) AQ STING” value in assay [1] was found to be 20.8 °C. In addition, the “DSF ΔTm (° C.) WT STING” value in assay [2] stood at 13.7 °C. In addition, the EC50 in assay [3] worked out at 0.3 µM; in assay [5] (setting [6]), 27 µM; in assay [5] (setting [7]), 23 µM; in assay [5] (setting [8]), 25 µM; in assay [4] it was 0.007 µM.
With `Nc1ncnc2c1ncn2[C@@H]1C[C@@H]2COP(=O)(S)OC3C(F)[C@H](n4cnc5c(N)ncnc54)O[C@@H]3COP(=O)(S)OC2C1F` (single isomer, unassigned) [Compound 102a], the ΔTm at 150 µM in assay [1] was 11.2 °C; in assay [2] it was 6.7 °C. For the same molecule, the EC50 in assay [3] stood at 1.8 µM; in assay [4], 0.11 µM.
`Nc1nc2c(ncn2[C@@H]2O[C@@H]3COP(=O)(O)O[C@@H]4[C@H](O)[C@@H](COP(=O)(O)O[C@@H]2[C@@H]3O)O[C@H]4n2cnc3c(N)ncnc32)c(=O)[nH]1` [2′2′-cGAMP, reference compound]: the “DSF ΔTm (° C.) AQ STING” value in assay [1] was 19.4 °C. In addition, the “DSF ΔTm (° C.) WT STING” value in assay [2] amounted to 11.5 °C. The EC50 in assay [3] was 10.2 µM; in assay [4], 0.03 µM.
For `Nc1ncnc2c1ncn2[C@@H]1C[C@@H]2COP(=O)(S)O[C@@H]3[C@@H](COP(=O)(S)O[C@H]2[C@H]1F)C[C@@H](n1cnc2c(N)ncnc21)[C@@H]3F` (single isomer, unassigned) [Compound 128b], the “DSF ΔTm (° C.) AQ STING” value in assay [1] was 17.5 °C. For the same molecule, the “DSF ΔTm (° C.) WT STING” value in assay [2] turned out to be 12.2 °C. Moreover, the concentration for a half-maximal effect (EC50) in assay [3] was found to be 0.4 µM; in assay [5] (setting [6]) it was 27 µM; in assay [5] (setting [7]), 6.5 µM; in assay [5] (setting [8]) it was 19 µM; in assay [4] it was 0.01 µM.
For `Nc1ncnc2c1ncn2[C@H]1CC2OP(=O)(O)OC[C@H]3O[C@@H](n4cnc5c(N)ncnc54)C(F)C3OP(=O)(O)OC[C@H]2C1` (stereo partly drawn) [Compound 119, (2R, 3R, 3aR, 7aR, 9R, 10aS, 14aR)-2,9-bis(6-amino-9H-purin-9-yl)-3-fluoro-5,12-dihydroxydecahydro-2H-cyclopeanta[d]furo[3,2-j][1,3,7,9]tetraoxa[2,8]diphosphacyclododecine 5,12-dioxide], the ΔTm at 150 µM in assay [1] worked out at 16.6 °C; in assay [2] it was 5.7 °C. For the same molecule, the EC50 came to 11.7 µM in assay [3]; 265 µM in assay [5] (setting [6]); 169 µM in assay [5] (setting [7]); 146 µM in assay [5] (setting [8]); 0.05 µM in assay [4].
Consider `Nc1ncnc2c1ncn2[C@@H]1C[C@@H]2COP(=O)(S)OC3C[C@H](n4cnc5c(N)ncnc54)O[C@@H]3COP(=O)(S)OC2C1F` (single isomer, unassigned) [Compound 142b], for which the results for the EC50 in assay [3] and in assay [4] were 0.5 µM and 0.02 µM, respectively.
For `Nc1nc2c(ncn2[C@@H]2O[C@@H]3COP(=O)(S)OC4C(F)[C@H](n5cnc6c(N)ncnc65)C[C@@H]4COP(=O)(S)OC3C2F)c(=O)[nH]1` (stereo partly drawn) [Compound 132b, (1R,6R,8R,9R,10R,15R,17R,18S)-8-(2-amino-6-oxo-6,9-dihydro-1H-purin-9-yl)-17-(6-amino-9H-purin-9-yl)-9,18-difluoro-3,12-disulfanyl-2,4,7,11,13-pentaoxa-3λ^5,12λ^5-diphosphatricyclo[13.3.0.0^6,10]octadecane-3,12-dione], the ΔTm at 150 µM was 26.1 °C in assay [1] and 18.6 °C in assay [2]. Besides, the EC50 in assay [3] was determined as 0.2 µM; in assay [4] it was 0.01 µM.
Regarding `Nc1ncnc2c1ncn2[C@@H]1C[C@@H]2COP(=O)(S)OC3C(F)[C@H](n4cnc5c(N)ncnc54)O[C@@H]3COP(=O)(S)OC2C1F` (single isomer, unassigned) [Compound 102d], the results for the EC50 in assay [3] and in assay [4] were 0.4 µM and 0.01 µM, respectively.
On to `Nc1ncnc2c1ncn2[C@@H]1C[C@@H]2COP(=O)(O)O[C@H]3[C@@H](F)[C@H](n4cnc5c(N)ncnc54)O[C@@H]3COP(=O)(S)O[C@H]2[C@H]1F` (single isomer, unassigned) [Compound 130a], for which the ΔTm at 150 µM in assay [1] was found to be 20.7 °C; in assay [2], 14.7 °C. Further, the EC50 came out at 1 µM in assay [3] and 0.01 µM in assay [4].
